According to patent publication US7892218B2, “pH reducing formulation” (Rostam Ltd., priority 2004, dated 2011):

Legend:
[1] = Method: The same experiment was repeated by comparing the pH lowering kinetics of the same compounds, deposited onto a polymeric support in the form of weighed (240 mg), rectangular shaped pieces of non-woven (NW) tampon cloth (hereinafter referred to as “strips”) by evaporation from an acetone solution, substantially as described in WO 02/17981 and U.S. 2002/0045873 whose contents are hereby incorporated by reference in their entireties. The strips may be incorporated in a tampon. The strips were dipped in plasma at 37° C.
[2] = remark: listed apart in the source
Method: The pH lowering ability of glycolide in its crystalline form, obtained from Purac Ltd., Holland, was tested in plasma at 37° C. as a function of time, compared to that of lactide and citric acid (also in crystalline form). All three materials were taken such as to eventually yield equal molar amounts of carboxylic acid groups.

release behaviour on strips (in words) ([1]; non-woven strips, plasma, 37° C. (FIG. 2))	change in degradation rate when deposited on strips [1]	time in which degradation was completed [2]	Compound	degradation / acid release kinetics (in words) [2]
behaved as previously described	–	–	O=C(O)CC(O)(CC(=O)O)C(=O)O [citric acid]	burst-like immediate release
–	two-fold increase	approximately 120 minutes	CC1OC(=O)C(C)OC1=O (stereo not shown) [lactide]	–
–	two-fold increase	approximately 40 minutes	O=C1COC(=O)CO1 [glycolide]	significantly faster than that of lactide
